Measurements as given in patent US20170248586A1, “Marker For Depression, Assay Method, Method For Determining Depression, Screening Method For Antidepressants, And Kit” (MEIJO UNIVERSITY, priority 2013, published 2017).

Tests used:
[1] = system: MAGE-D1 gene-deficient mice; assay: Forced swim test, evaluation of depression-like behavior in model mice; assay type: in vivo, mouse; conditions: for average value of immobility time: immobility measured for 10 minutes, 0 mg/kg group 425 seconds; for depression-like behavior in model mice: FIG. 1A desipramine, FIG. 1B atomoxetine; for increase in immobility time of model mice in the forced swim test (result in words): desipramine 10 mg/kg or atomoxetine 3 mg/kg i.p., FIGS. 1A and 1B
Description: A targeting vector (Stratagene: pBlueScript) for homologous recombination between a MAGE-D1 gene (Gene bank: NM_019791.2) exon and a drug (G418)-resistant gene (GenBank: U00004.1) was electroporated into embryo stem (ES) cells derived from 129Svj mice (supplied from National Center for Geriatrics and Gerontology), and drug-resistant colonies were selected. A homologous recombinant was identified from the selected drug-resistant colonies by Southern blotting. The identified target homologous recombinant ES cell clone was injected into C57BL/6J mouse blastocyst-stage embryos to generate chimeric mice. The chimeric mice were mated with wild-type C57BL/6J mice to generate F1 heterozygous MAGE-D1 gene-deficient mice. The heterozygous MAGE-D1 gene-deficient mice were mated with wild-type C57BL/6J mice up to the F10 generation. The mice having a 99.9% C57BL/6J genetic background were used (When mating with a C57BL/6J mouse is performed once, about half of the genes of a newborn mouse are derived from the C57BL/6J mouse used for mating. That is, it is considered that when mating with a C57BL/6J mouse is performed n times, about [1−(½)^n+1]×100% of genes are derived from the C57BL/6J mouse.) The mice having such a genetic background were defined as MAGE-D1 gene-deficient mice (hereinafter, also referred to as model mice) and used in the following tests.
(§1) Experimental Equipment and Procedure: A water bath (diameter 15 cm×height 20 cm) filled with water (water temperature: about 22° C., depth: 13 cm) was used as experimental equipment. A wild-type C57BL/6J mouse as a control or a model mouse was placed in the water bath, and just after that, immobility time was measured by Scanet MV-10 AQ (Brain Science Idea, Osaka, Japan) every 1 minute for 10 minutes.
(§2) Thirty minutes before the test, 10 mg/kg of desipramine (Sigma, St. Louis, Mo.) or 3 mg/kg of atomoxetine (LKT Laboratories, Inc, MN) dissolved in normal saline was intraperitoneally administered. As a control, the solvent was intraperitoneally administered.
(§3) In Examples, MAGE-D1 gene-deficient mice were used as animal models. The forced swim test was used for evaluating depression-like behavior. In the forced swim test, a mouse is placed in a narrow cylinder filled with water so as to recognize the impossibility of escape therefrom, and the time that the mouse floats on water without moving is evaluated as decreased motivation. […] Each administration test was performed in triplicate, and therefore graphs in FIGS. 1A and 1B show average values.

wild-type C57BL/6J mouse = assay: Forced swim test in control mice; assay type: in vivo; conditions: immobility measured for 10 minutes, 0 mg/kg group 203 seconds
Method: as §1, §2, §3

[2] = 3 mg/kg intraperitoneally 30 min before test
[3] = 10 mg/kg intraperitoneally 30 min before test

Structure (SMILES): CNCC[C@@H](Oc1ccccc1C)c1ccccc1 [atomoxetine]
- average value of immobility time [1, 2]: 283 s
- depression-like behavior in model mice [1]: relieved
- increase in immobility time of model mice in the forced swim test (result in words) [1]: significantly reduced
- average value of immobility time (wild-type C57BL/6J mouse; [2]): 205 s

Structure (SMILES): CNCCCN1c2ccccc2CCc2ccccc21 [desipramine]
- average value of immobility time [1, 3]: 334 s
- depression-like behavior in model mice [1]: relieved
- increase in immobility time of model mice in the forced swim test (result in words) [1]: significantly reduced
- average value of immobility time (wild-type C57BL/6J mouse; [3]): 215 s
